Measurements published in PubChem BioAssay (NCI).
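Where inhibition never reached the appropriate level, the endpoint shown equals the highest concentration tested. Otherwise, values were interpolated linearly from a five-concentration, 48-hour dose response in 96-well plates. GI50 marks 50% less growth. TGI: concentration producing complete growth inhibition.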

Assays:
Assay in all cases: NCI tumour cell line growth inhibition, 48 h
HOP-62 NSCLC = system: HOP-62 NSCLC
LOX IMVI melanoma = system: LOX IMVI melanoma
MCF7 breast = system: MCF7 breast
NCI-H23 lung = system: NCI-H23 lung
HCC-2998 colon = system: HCC-2998 colon
COLO 205 colon = system: COLO 205 colon
ACHN renal = system: ACHN renal
RXF 393 renal = system: RXF 393 renal
RPMI-8226 leukemia = system: RPMI-8226 leukemia
MALME-3M melanoma = system: MALME-3M melanoma
OVCAR-5 ovarian = system: OVCAR-5 ovarian
SK-MEL-2 melanoma = system: SK-MEL-2 melanoma
SK-OV-3 ovarian = system: SK-OV-3 ovarian
SK-MEL-28 melanoma = system: SK-MEL-28 melanoma
CCRF-CEM leukemia = system: CCRF-CEM leukemia
UACC-257 melanoma = system: UACC-257 melanoma
UACC-62 melanoma = system: UACC-62 melanoma
HOP-92 NSCLC = system: HOP-92 NSCLC
A498 renal = system: A498 renal
SF-295 CNS = system: SF-295 CNS
786-0 renal = system: 786-0 renal
IGROV1 ovarian = system: IGROV1 ovarian
SW-620 colon = system: SW-620 colon
OVCAR-3 ovarian = system: OVCAR-3 ovarian
PC-3 prostate = system: PC-3 prostate
K-562 leukemia = system: K-562 leukemia
EKVX NSCLC = system: EKVX NSCLC
SF-268 CNS = system: SF-268 CNS
SF-539 CNS = system: SF-539 CNS
SR leukemia = system: SR leukemia
KM12 colon = system: KM12 colon
MOLT-4 leukemia = system: MOLT-4 leukemia
HL-60(TB) leukemia = system: HL-60(TB) leukemia
NCI/ADR-RES ovarian = system: NCI/ADR-RES ovarian
HS 578T breast = system: HS 578T breast
DU-145 prostate = system: DU-145 prostate
NCI-H226 lung = system: NCI-H226 lung
CAKI-1 renal = system: CAKI-1 renal
OVCAR-8 ovarian = system: OVCAR-8 ovarian
HCT-116 colon = system: HCT-116 colon
HCT-15 colon = system: HCT-15 colon
OVCAR-4 ovarian = system: OVCAR-4 ovarian
NCI-H522 lung = system: NCI-H522 lung
UO-31 renal = system: UO-31 renal
M14 melanoma = system: M14 melanoma
NCI-H460 lung = system: NCI-H460 lung
T-47D breast = system: T-47D breast
MDA-MB-231 breast = system: MDA-MB-231 breast
SN12C renal = system: SN12C renal
BT-549 breast = system: BT-549 breast
A549 NSCLC = system: A549 NSCLC
U251 CNS = system: U251 CNS
MDA-MB-435 = system: MDA-MB-435
SK-MEL-5 melanoma = system: SK-MEL-5 melanoma
TK-10 renal = system: TK-10 renal

SMILES: C=C(C)[C@H]1CC/C(C)=C/CCC(C)C(=O)CC/C(CO)=C\[C@@H]1O (stereo not given in full)
- GI50 (HOP-62 NSCLC): > 100 µM
- TGI (HOP-62 NSCLC): > 100 µM
- GI50 (LOX IMVI melanoma): 57.3 µM
- TGI (LOX IMVI melanoma): > 100 µM
- GI50 (MCF7 breast): > 100 µM
- TGI (MCF7 breast): > 100 µM
- GI50 (NCI-H23 lung): > 100 µM
- TGI (NCI-H23 lung): > 100 µM
- GI50 (HCC-2998 colon): > 100 µM
- TGI (HCC-2998 colon): > 100 µM
- GI50 (COLO 205 colon): > 100 µM
- TGI (COLO 205 colon): > 100 µM
- GI50 (ACHN renal): > 100 µM
- TGI (ACHN renal): > 100 µM
- GI50 (RXF 393 renal): > 100 µM
- TGI (RXF 393 renal): > 100 µM
- GI50 (RPMI-8226 leukemia): > 100 µM
- TGI (RPMI-8226 leukemia): > 100 µM
- GI50 (MALME-3M melanoma): 55.3 µM
- TGI (MALME-3M melanoma): > 100 µM
- GI50 (OVCAR-5 ovarian): > 100 µM
- TGI (OVCAR-5 ovarian): > 100 µM
- GI50 (SK-MEL-2 melanoma): > 100 µM
- TGI (SK-MEL-2 melanoma): > 100 µM
- GI50 (SK-OV-3 ovarian): > 100 µM
- TGI (SK-OV-3 ovarian): > 100 µM
- GI50 (SK-MEL-28 melanoma): 7.9 µM
- TGI (SK-MEL-28 melanoma): > 100 µM
- GI50 (CCRF-CEM leukemia): 44.6 µM
- TGI (CCRF-CEM leukemia): > 100 µM
- GI50 (UACC-257 melanoma): > 100 µM
- TGI (UACC-257 melanoma): > 100 µM
- GI50 (UACC-62 melanoma): 67.6 µM
- TGI (UACC-62 melanoma): > 100 µM
- GI50 (HOP-92 NSCLC): 61.5 µM
- TGI (HOP-92 NSCLC): > 100 µM
- GI50 (A498 renal): 68.7 µM
- TGI (A498 renal): > 100 µM
- GI50 (SF-295 CNS): 70 µM
- TGI (SF-295 CNS): > 100 µM
- GI50 (786-0 renal): > 100 µM
- TGI (786-0 renal): > 100 µM
- GI50 (IGROV1 ovarian): > 100 µM
- TGI (IGROV1 ovarian): > 100 µM
- GI50 (SW-620 colon): > 100 µM
- TGI (SW-620 colon): > 100 µM
- GI50 (OVCAR-3 ovarian): > 100 µM
- TGI (OVCAR-3 ovarian): > 100 µM
- GI50 (PC-3 prostate): 76.3 µM
- TGI (PC-3 prostate): > 100 µM
- GI50 (K-562 leukemia): 65.6 µM
- TGI (K-562 leukemia): > 100 µM
- GI50 (EKVX NSCLC): 55.5 µM
- TGI (EKVX NSCLC): > 100 µM
- GI50 (SF-268 CNS): 88.9 µM
- TGI (SF-268 CNS): > 100 µM
- GI50 (SF-539 CNS): > 100 µM
- TGI (SF-539 CNS): > 100 µM
- GI50 (SR leukemia): > 100 µM
- TGI (SR leukemia): > 100 µM
- GI50 (KM12 colon): > 100 µM
- TGI (KM12 colon): > 100 µM
- GI50 (MOLT-4 leukemia): 56.6 µM
- TGI (MOLT-4 leukemia): > 100 µM
- GI50 (HL-60(TB) leukemia): 45.4 µM
- TGI (HL-60(TB) leukemia): > 100 µM
- GI50 (NCI/ADR-RES ovarian): > 100 µM
- TGI (NCI/ADR-RES ovarian): > 100 µM
- GI50 (HS 578T breast): 41.9 µM
- TGI (HS 578T breast): > 100 µM
- GI50 (DU-145 prostate): 60.8 µM
- TGI (DU-145 prostate): > 100 µM
- GI50 (NCI-H226 lung): > 100 µM
- TGI (NCI-H226 lung): > 100 µM
- GI50 (CAKI-1 renal): 65.9 µM
- TGI (CAKI-1 renal): > 100 µM
- GI50 (OVCAR-8 ovarian): > 100 µM
- TGI (OVCAR-8 ovarian): > 100 µM
- GI50 (HCT-116 colon): 97.4 µM
- TGI (HCT-116 colon): > 100 µM
- GI50 (HCT-15 colon): 5.47 µM
- TGI (HCT-15 colon): > 100 µM
- GI50 (OVCAR-4 ovarian): 20.4 µM
- TGI (OVCAR-4 ovarian): > 100 µM
- GI50 (NCI-H522 lung): 86.3 µM
- TGI (NCI-H522 lung): > 100 µM
- GI50 (UO-31 renal): > 100 µM
- TGI (UO-31 renal): > 100 µM
- GI50 (M14 melanoma): 87.7 µM
- TGI (M14 melanoma): > 100 µM
- GI50 (NCI-H460 lung): 58.8 µM
- TGI (NCI-H460 lung): > 100 µM
- GI50 (T-47D breast): > 100 µM
- TGI (T-47D breast): > 100 µM
- GI50 (MDA-MB-231 breast): > 100 µM
- TGI (MDA-MB-231 breast): > 100 µM
- GI50 (SN12C renal): > 100 µM
- TGI (SN12C renal): > 100 µM
- GI50 (BT-549 breast): 88.1 µM
- TGI (BT-549 breast): > 100 µM
- GI50 (A549 NSCLC): > 100 µM
- TGI (A549 NSCLC): > 100 µM
- GI50 (U251 CNS): 90.3 µM
- TGI (U251 CNS): > 100 µM
- GI50 (MDA-MB-435): 49.2 µM
- TGI (MDA-MB-435): > 100 µM
- GI50 (SK-MEL-5 melanoma): 40.7 µM
- TGI (SK-MEL-5 melanoma): > 100 µM
- GI50 (TK-10 renal): 70.8 µM
- TGI (TK-10 renal): > 100 µM
